Measurements as given in US12515170B2, “CO2 capture and utilization system and method” (University of Kentucky Research Foundation, priority 2021, dated 2026).

Experiments:
[1] = system: Scenedesmus acutus; conditions: same molar N concentration; 3% CO2; 21 days; n=3
Procedure: In parallel, an experiment was performed using urea as a control (FIG. 13, tubes 1-3).
Experiments were conducted in a temperature controlled (20-27° C.) 10 L tubular photobioreactor system (FIG. 13). An artificial light system set to a 16:8 light/dark cycle (T5 cool white fluorescent bulbs) delivered 500 micromole m^−2 s^−1 PAR of photoactive radiation. CO2 was delivered as 3% CO2/nitrogen balance from gas cylinders. The experiments ran for 21 days.
Three times a week pH, UV-vis absorbance and dry mass measurements were made.

[2] = system: Scenedesmus acutus; assay: Algae production in 800 mL bioreactors with different nitrogen sources / CO2:NH3 mole ratios; type: cell-based; conditions: constant gas sparging, nitrogen source compared, no unit in Table 8 (FIG. 33: productivity g/L/day)
Procedure: To Examine the effect CO2:NH3 mole ratios on Scenedesmus acutus culture health and productivity, experiments were conducted in 800 mL bioreactors with constant gas sparging and different CO2:NH3 mole ratios (ranging from 7:1 up to 18:1) (FIG. 33). The “cycles” indicated in FIG. 33 refer to growth cycles of algae. In this regard, each bioreactor is normally inoculated with algae at a low concentration (e.g., 0.1 g/LO and the algae are allowed to grow until a concentration of 1 g/L is obtained. At this point, the algae are harvested until a concentration of 0.1 g/L is left in the bioreactor (with the addition of fresh nutrients and water). The algae are allowed to grow again until a concentration of 1 g/L is again reached, followed by harvesting. Each period of growth up to harvesting is characterized as a growth cycle.

`N.N.O=C(O)O` [(NH4)2CO3, ammonium carbonate] was tested, and the “algae growth rates by dry mass measurements versus urea control” value [1] was “significantly higher than for the control” and the “culture productivity by UV-vis absorbance at 560 nm versus urea control” value [1] was “significantly more productive than the control”.
Work on `O=[N+]([O-])[O-].[Na+]` [NaNO3] yielded a growth rate [2] of 0.13 ± 0.05.
Compound `NC(N)=O` [Urea, urea] has a growth rate [2] of 0.11 ± 0.04.
